Tests used:
Stat3 = Stat3 (Homo sapiens, UniProt P40763); experiment: Stat3 activity and target gene expression in extracted tumor tissues; type: in vivo, mouse; parameters: Tissue lysates of equal total protein prepared from the extracted tumors; from tissue; host or cells: extracted tumour tissue from treated and untreated mice
Experimental: We then profiled tumor tissues for Stat3 activity and Stat3 target gene expression as pharmacodynamic markers of therapeutic response. Tissue lysates of equal total protein prepared from the extracted tumors were subjected to Stat3 DNA-binding assay/EMSA analysis or SDS-PAGE and immunoblotting analysis.
(§1) These studies were performed as previously described [1 -3] . Briefly, snap-frozen tumor tissues or cultured cells treated or not were harvested and whole-cell or tissue lysates were prepared in radioimmunoprecipitation assay (RIPA) buffer. Samples of equal total protein were subjected to SDS - PAGE and immunoblotting analysis. Primary antibodies used were anti- Stat3, pY705-Stat3, pS727Stat3, […]
(§2) Akt, pT202/Y204Erk1/2 (p44/42), Erk1/2, PARP , caspase 3, c-Myc, survivin, VEGF, β-actin, α/β-tubulin, and GAPDH. For the studies of the effects of cell density and confluence on pY705Stat3, cells were seeded […] in culture dishes. The next day, cells were untreated (DMSO control, […]
(§3) concentration of H182 for 6 h and then treated with 0- 100 nM docetaxel or 0-20 µM cisplatin for a total of 72 h. Viable cell numbers were assessed by a CyQuant cell proliferation kit according to the manufacturer’s instructions (Thermo/Life Technologies Corp, Carlsbad, CA). […]

[1] = test system: c-Myc, survivin and vascular endothelial growth factor (VEGF); experiment: Immunoblotting for Stat3 downstream genes in cells; type: cell-based, human; details: MDA-MB-231, doses that inhibit Stat3 activity
Experimental: These studies were performed as previously described. Details are presented in Supplementary Information, “Methods”.
Aberrantly-active Stat3 promotes tumor cell growth and proliferation, survival, migration, invasion, and metastasis.
as §1, §2
0.1%) or treated at the same time with 1 or 2 µM H182, allowed to incubate for the indicated time and then harvested for whole-cell lysate preparation and SDS -PAGE / immunoblotting analy sis. […]
as §3

MDA-MB-231 cells = experiment: Clonogenic survival assay; type: cell-based, human; details: 0.3–2 μM H182, treated once
Experimental: These studies were performed as previously reported. Details are presented in Supplementary Information, “Methods”.
These studies were performed as previously reported . For the clonogenic survival assay, briefly, cells were seeded as single-cell (500 cells per well) in 6 -well plates, then untreated (DMSO control) or treated once the following day with H182 and allowed to grow until large colonies were visible, which were stained with crystal violet for 4 h and imaged with a FluorChem imaging system (Protein Simple, Santa Clara, CA).
For the soft-agar assay, briefly, each well contained a bottom layer of 1 ml of 1% agarose in complete DMEM and a top layer of 1 ml of 0.5% agarose in complete DMEM containing 500 cells. After the upper agar layer containing cells solidified, 1 ml culture medium containing H182 (0-2 µM) or DMSO (control) was overlaid, and the cultures were maintained at 37 °C in the incubator, with the medium replacement every 3-4 days with fresh medium that contains the inhibitor or not. Cells were allowed to culture for 3-4 weeks until large colonies were visible under microscope. The colonies were stained with crystal violet and […]
1.2.8. Confocal microscopy studies
4 cells in 1 ml) in logarithmic
These studies were performed as previously reported. […]

Stat3, sequence (P40763 2-770 limits assumed): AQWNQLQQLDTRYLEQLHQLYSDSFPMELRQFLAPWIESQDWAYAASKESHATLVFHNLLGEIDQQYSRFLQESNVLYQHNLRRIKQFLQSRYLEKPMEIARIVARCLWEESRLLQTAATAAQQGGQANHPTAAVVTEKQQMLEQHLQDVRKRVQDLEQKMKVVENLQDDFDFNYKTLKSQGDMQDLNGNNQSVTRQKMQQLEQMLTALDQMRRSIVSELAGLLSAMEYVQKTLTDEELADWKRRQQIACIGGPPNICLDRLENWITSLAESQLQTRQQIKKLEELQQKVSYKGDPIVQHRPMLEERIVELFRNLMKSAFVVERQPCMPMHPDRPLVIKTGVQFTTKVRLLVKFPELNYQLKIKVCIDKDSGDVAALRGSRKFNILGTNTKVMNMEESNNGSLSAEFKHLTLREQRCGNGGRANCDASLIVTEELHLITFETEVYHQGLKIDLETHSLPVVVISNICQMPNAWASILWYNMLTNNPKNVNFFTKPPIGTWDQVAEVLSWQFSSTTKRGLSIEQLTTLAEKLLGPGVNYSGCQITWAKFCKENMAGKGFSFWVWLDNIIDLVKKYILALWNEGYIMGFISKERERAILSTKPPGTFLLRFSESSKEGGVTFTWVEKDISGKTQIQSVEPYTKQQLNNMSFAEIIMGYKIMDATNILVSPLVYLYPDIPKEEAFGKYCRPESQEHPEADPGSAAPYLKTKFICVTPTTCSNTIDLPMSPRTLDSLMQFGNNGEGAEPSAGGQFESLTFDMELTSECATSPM

O=C([C@H]1CCN1S(=O)(=O)c1c(F)c(F)c(F)c(F)c1F)N(Cc1ccc(C2CCCCC2)cn1)c1ccc2c(=O)[nH]ncc2c1 [Compound H182]
Stat3 DNA-binding activity in tumor tissues (Stat3; EMSA of tumor tissue lysates, treated vs untreated control): suppressed Stat3 DNA-binding activity in tumor tissues
Expression of c-Myc, VEGF, and survivin in tumor tissues (Stat3; immunoblotting of tumor tissue lysates): suppression of the expression of Stat3 downstream genes
Expression of c-Myc, survivin and VEGF in cells [1]: rapidly suppressed
Effect on anchorage-dependent colony formation (MDA-MB-231 cells): potently and dose-dependently inhibited

From publication PMC9867837 (Cancer letters, 2022)
